Experimental data from patent US20140349852A1, “METABOLIC CONTROL OF SEED GERMINATION” (Oregon State University, priority 2010, published 2014).

Legend:
[1] = system: control seeds of non-transgenic plants; assay: Germination test of wild-type Camelina seeds; assay type: in vivo, Camelina sativa; details: presence or absence of MOF
Experimental: (§1) For the induction experiment in imbibed seeds, seeds were placed in 9 cm plastic petri dishes on two layers of filter paper (No. 2, Whatman Inc.) moistened with 4 mL water or (122.6 μM or 2×10,000) MOF or 1 mM ABA and incubated at 4° C. for overnight and at 22° C. for 72 h (germination tests and gene expression analysis).

[2] = system: AGE:NCED6 transgenic Camelina seeds; assay: Germination test of Camelina AGE:NCED6 seeds; assay type: in vivo, Camelina sativa; design: recovery of germination of MOF-induced AGE:NCED6 Camelina seeds: dose or concentration left out as unconfirmed
Experimental: as §1
To determine whether there was an effect of the AGE: NCED6 expression vector on the ability of transgenic seeds to undergo germination, wild-type and homozygous seeds from transgenic plant lines, 16-12, 17-17, and 13-12, were imbibed for three days in the presence or absence of MOF. […] Control seeds of non-transgenic plants were shown the same in the presence or absence of MOF. Germination of Camelina seeds is observed initially as ruptured testa followed by emergence of the […] when the radicle emerges.

[3] = system: ABA levels in AGE:NCED6 Camelina seeds; assay: ABA quantification in Camelina seeds by mass spectrometry; assay type: in vivo, Camelina sativa; details: after application of MOF
Experimental: ABA was quantified by a previously published method (44), but was modified to ABA. Briefly, samples were ground in liquid nitrogen and internal standards ([…] of 2.5 mM) were added. Samples were extracted with 1.5 mL acetonitrile/methanol (1:1 v:v). After lyophilization, samples were resolubilized in […] of 50% MeOH. For LC separation, two monolithic C18 columns (Onyx, 4.6 mm×100 mm, Phenomenex) with a guard cartridge were used flowing at 1 mL min^−1. […] For quantitation, a series of standards were prepared containing different concentrations of ABA mixed with D-labeled ABA (250 μmol/sample). […] The peak areas of endogenous ABA were normalized with the corresponding internal standard and then calculated according to the standard curve.
To examine whether ABA levels in the AGE: NCED6 seeds were affected by gene induction, ABA in wild-type and the AGE: NCED6 seeds was quantified by mass spectrometry, as described previously. […]

[4] = system: AGE:CYP707A2 transgenic Camelina seeds; assay: Germination test of Camelina AGE:CYP707A2 seeds; assay type: in vivo, Camelina sativa; details: imbibed three days in the presence of MOF or MOF+ABA (1 mM ABA)
Experimental: as §1
To determine whether there was an effect of AGE: CYP707A2 transgenic seeds on germination during imbibitions, wild-type and homozygous seeds from transgenic plant lines, 14-3, 3-6, and 2-1, were imbibed for three days in the presence of MOF or in the presence of MOF+ABA.

[5] = system: Arabidopsis NCED6 expression in AGE:NCED6 Camelina seeds; assay: Real time PCR analysis of Arabidopsis NCED6 in Camelina seeds; assay type: in vivo, Camelina sativa; details: imbibed three days in the presence or absence of MOF
AGE:NCED6 seeds = assay: Germination test of imbibed AGE:NCED6 seeds; assay type: in vivo, Arabidopsis thaliana; details: 10 μM fluridone co-applied with Intrepid®2F
Experimental: Briefly, for the induction of AGE:NCED6 plants at ˜10 rosette stages, diluted (×10,000), Intrepid®2F (Dow AgroSciences) solution which contained 62 μM MOF as an active ingredient was applied directly to the soil in pots containing Arabidopsis seedlings by drenching. Seedling were harvested two days after induction and frozen at −80° C. before RNA extraction. For the induction experiments in imbibed seeds, seeds were placed in 9 cm plastic petri dishes on two layers of filter paper (No. 2, Whatman Inc) moistened with 3.5 mL water or Intrepid®2F (×10,000) and incubated at 4° C. for 3 days and at 22° C. for 29 h (gene expression analysis) or 5 days (germination tests).

Molecule | germination of control seeds of non-transgenic Camelina plants [1] | inhibition of germination (endosperm rupture and radicle protrusion), line 13-12 ([2]; AGE:NCED6 Camelina line 13-12, MOF, three days) | inhibition of germination (endosperm rupture and radicle protrusion), line 16-12 ([2]; AGE:NCED6 Camelina line 16-12, MOF, three days) | inhibition of germination (endosperm rupture and radicle protrusion), line 17-17 ([2]; AGE:NCED6 Camelina line 17-17, MOF, three days) | germination of AGE:NCED6 Camelina seeds ([2]; imbibed three days in the presence of MOF (122.6 μM)) | ABA in AGE:NCED6 Camelina seeds [3] | germination of AGE:CYP707A2 Camelina seeds, line 2-1 [4] | germination of AGE:CYP707A2 Camelina seeds, line 3-6 [4] | germination of AGE:CYP707A2 Camelina seeds, line 14-3 [4] | Arabidopsis NCED6 expression in Camelina seeds by real time PCR [5] | recovery of germination of MOF-induced AGE:NCED6 Camelina seeds ([2]; co-application of MOF and fluridone, data not shown) | recovery of germination of ligand-suppressed AGE:NCED6 seeds (AGE:NCED6 seeds)
COc1cccc(C(=O)NN(C(=O)c2cc(C)cc(C)c2)C(C)(C)C)c1C [MOF, methoxyfenozide] | the same | 95% | 89% | 90% | inhibited dramatically | remarkable increase in ABA | 95% | 98% | 99% | did not detect | – | –
fluridone | – | – | – | – | – | – | – | – | – | – | fully rescued | fully rescued
